Data from US20220249399A1, “COMPOSITION COMPRISING AN ANTI-OXIDANT TO PRESERVE CORNEAL TISSUE” (University of lowa Research Foundation, priority 2019, published 2022).

How the values were obtained:
[1] = system: primary cultures of corneal endothelial cells; assay: Seahorse XFe96 mitochondrial respiration of primary cultures of corneal endothelial cells; assay type: cell-based, human; conditions: uncomplexed coenzyme Q10 (100 μM) or cyclodextrin alone vs diluent control
Method: (§1) Human corneas were obtained by Iowa Lions Eye Bank (ILEB) from nondiabetic donors 60-75 years old and stored in Optisol GS (Bausch+Lomb, Irvine, Calif.) at 4° C. following procurement in accordance with Eye Bank Association of America and ILEB policies and procedures. Endothelial cells were isolated and cultured in Seahorse XFe96 well plates until they reached confluency. Purity of cell cultures were confirmed with anti-zonula occludens 1 (ZO-1) labeling of cellular tight junctions. Once confluent, cells were treated with different concentrations of cyclodextrin-coenzyme Q10 complex in culture (1 μM, 10 μM, or 100 μM) uncomplexed coenzyme Q10 (100 μM), cyclodextrin alone, or diluent control. Mitochondrial respiration was assayed by measuring oxygen consumption using the Seahorse XFe96 Extracellular Flux Analyzer (Agilent Technologies, Santa Clara, Calif.) over 120 minutes (9-minute intervals). Wells were labeled with a nuclear counterstain (DAPI) and nuclei were counted in each well to normalize respirometry data.
Seahorse respiration assays were conducted with MitoQ with doses ranging from 0 to 10 μM. All experiments were performed on corneal endothelial cells in culture and analyzed using the XFe96 Extracellular Flux Analyzer.
as §1, with “MitoQ with doses ranging from 0 to” for “different concentrations of cyclodextrin-coenzyme Q10 complex in culture (1 μM,”, “μM.” for “μM, or 100 μM) uncomplexed coenzyme Q10 (100 μM), cyclodextrin alone, or diluent control.”

[2] = system: human donor corneal endothelial cells; assay: Apoptosis and necrosis assays on donor endothelial cell-Descemet membrane tissue after storage; assay type: cell-based; conditions: for corneal endothelial cell necrosis, change vs control: vs diluent control
Method: Human corneal tissue pairs were obtained by Iowa Lions Eye Bank (ILEB) from nondiabetic donors 60-75 years old and stored in Optisol GS (Bausch+Lomb, Irvine, Calif.) at 4° C. following procurement in accordance with Eye Bank Association of America and ILEB policies and procedures. […] Descemet membrane and endothelial cell punches were collected and mounted onto the bottom of a Seahorse assay plate (cells facing upward). Mitochondrial respiration was assayed by measuring oxygen consumption using the Seahorse XFe24 Extracellular Flux Analyzer (Agilent Technologies, Santa Clara, Calif.) over 120 minutes (9-minute intervals). Punches were labeled with a nuclear counterstain (DAPI) and remaining tissues were mounted onto slides and labeled with 488A-Annexin V, Ethidium Homodimer III, and Hoechst 33342 (Apoptotic, Necrotic, and Healthy Cells Quantification Kit; Biotium, Fremont, Calif.) to assay cell health. Nuclei were counted in each punch to normalize respirometry data. Immunohistochemistry densitometry was measured using ImageJ software.
(§2) Human corneal tissue pairs were obtained by Iowa Lions Eye Bank (ILEB) from nondiabetic donors 60-75 years old and stored in Optisol GS (Bausch+Lomb, Irvine, Calif.) at 4° C. following procurement in accordance with Eye Bank Association of America and ILEB policies and procedures. For 5 days prior to testing, but within 9 days of procurement, one stored tissue from a corneal pair was treated with 10 μM CoQ10, while the mate tissue was treated with diluent only as a control. Descemet membrane and endothelial cell punches were collected and mounted onto the bottom of a Seahorse assay plate (cells facing upward). Mitochondrial respiration was assayed by measuring oxygen consumption using the Seahorse XFe24 Extracellular Flux Analyzer (Agilent Technologies, Santa Clara, Calif.) over 120 minutes (9-minute intervals). Punches were labeled with a nuclear counterstain (DAPI) and remaining tissues were mounted onto slides and labeled with 488A-Annexin V, Ethidium Homodimer III, and Hoechst 33342 (Apoptotic, Necrotic, and Healthy Cells Quantification Kit; Biotium, Fremont, Calif.) to assay cell health. Nuclei were counted in each punch to normalize respirometry data. Immunohistochemistry densitometry was measured using ImageJ software.
as §2, with “100” for “10”, “palmitate-BSA,” for “CoQ10,”, “BSA” for “diluent”
In brief, excess EDM tissues from surrounding the punches used for metabolic assays were incubated with 488A-Annexin V, Ethidium Homodimer III, and Hoechst 33342 (Apoptotic, Necrotic, and Healthy Cells Quantification Kit; Biotium, Fremont, Calif.) to detect the apoptotic, necrotic, and entire cell populations, respectively. […]

[3] = 10 μM ubiquinol vs diluent-treated mate cornea, 5 days, n = 9
[4] = 10 μM ubiquinol, 5 days in Optisol-GS, n = 9 matched tissues
[5] = palmitate-BSA treated tissues (100 μM), 5 days, n = 8 matched tissues

ubiquinol
mitochondrial spare respiratory capacity [1]: reduces mitochondrial spare respiratory capacity
protection against apoptosis and necrosis ([2]; 1 μM coQ10, tissues in storage): protected not only against apoptosis, but also against necrosis
apoptosis reduced in treated cells ([2]; 10 μM CoQ10, 5 days in Optisol GS, vs diluent control (p=0.09)): 29%
corneal endothelial cell necrosis, change vs control ([2]; 10 μM CoQ10, 5 days in Optisol GS, listed as CoQ10): not changed
corneal endothelial cell necrosis, change vs control ([2]; 10 μM CoQ10, 5 days in Optisol GS, listed as co-Q10): did not change
corneal endothelial cell necrosis, change vs control ([2]; 10 μM CoQ10, 5 days in Optisol GS, listed as coenzyme Q10): did not change
% Apoptotic, Mean Ratio: Ubiquinol/Control (95% CI) [2, 3]: Ratio: 0.90 (0.63, 1.29)
% Necrotic, Mean Ratio: Ubiquinol/Control (95% CI) [2, 3]: Ratio: 1.02 (0.91, 1.15)
% Apoptotic, Mean (SD) [2, 4]: 0.0040 (0.0047) %
% Necrotic, Mean (SD) [2, 4]: 0.0263 (0.0070) %
apoptosis, change vs controls ([2]; Example 13: 10 μM ubiquinol, 5 days in Optisol-GS (p=0.517)): no significant change
cell necrosis, change vs controls ([2]; Example 13: 10 μM ubiquinol, 5 days in Optisol-GS (p=0.694)): no significant change
% Apoptotic, Mean (SD) [2, 5]: 0.00053 (0.00062) %
% Necrotic, Mean (SD) [2, 5]: 0.0628 (0.0532) %
CEC cell death in storage ([2]; ubiquinol supplemented corneal storage medium vs non-supplemented): decreased
